Test results: patent US12310975B2, “Modulators of BCL6 proteolysis and associated methods of use” (Arvinas Operations, Inc., priority 2019, dated 2025)

Experiments:
[1] = target: T1, BCL6 (Homo sapiens (Human), UniProt P41182); assay: Immunofluorescence high content imaging of BCL6 degradation in T47D cells; type: cell-based; conditions: T47D
Outline: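 T47D cells were treated for 3 days at 37 °C with 11-point 3-fold dilutions of bifunctional degrader (final top 0.1 or 1 μM). BCL6 was detected by immunofluorescence after PFA fixation, with Hoechst and cell mask counterstains, and imaged at 10×, 4 fields/well.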

[2] = target: T1, BCL6; assay: BCL6 TR-FRET assay (BCL6-Avitag-Biotin / BCoR-Cy5 peptide); type: binding; conditions: read-out: IC50
Outline: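 TR-FRET displacement assay: biotinylated His-SUMO-BCL6-Avitag (2 nM) pre-incubated 30 min at room temperature with compound (12-point 3-fold titration), then BCoR-Cy5 peptide (100 nM) and Eu-streptavidin (2 nM) added. Buffer: 50 mM HEPES pH 7.5, 125 mM NaCl, 0.01% Triton X, glutathione or DTT, 0.03% BSA. Read after 2 h.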

| Structure (SMILES) | Dmax [1] [%] | IC50 [2] [nM] |
| --- | --- | --- |
| CNC(=O)COc1cc2cc(Nc3nc(N4CCC(O[C@H]5C[C@@H](Oc6cccc7c6C(=O)N(C6CCC(=O)NC6=O)C7=O)CN(C)C5)CC4)ncc3Cl)ccc2n(C(C)C)c1=O (stereo partly drawn) [compound 477, 2-[(6-{[5-chloro-2-(4-{[(3S,5R)-5-{[2-(2,6-dioxopiperidin-3-yl)-1,3-dioxo-2,3-dihydro-1H-isoindol-4-yl]oxy}-1-methylpiperidin-3-yl]oxy}piperidin-1-yl)pyrimidin-4-yl]amino}-2-oxo-1-(propan-2-yl)-1,2-dihydroquinolin-3-yl)oxy]-N-methylacetamide] | < 50 | 10 to 50 |
| CNC(=O)COc1cc2cc(Nc3nc(N4CCC(C5(N6CCC(c7cc(OC)cc(C(=O)NC8CCC(=O)NC8=O)c7F)CC6)CC5)CC4)ncc3Cl)ccc2n(C)c1=O (centres unmarked) [compound 480, 3-[1-(1-{1-[5-chloro-4-({1-methyl-3-[(methylcarbamoyl)methoxy]-2-oxo-1,2-dihydroquinolin-6-yl}amino)pyrimidin-2-yl]piperidin-4-yl}cyclopropyl)piperidin-4-yl]-N-(2,6-dioxopiperidin-3-yl)-2-fluoro-5-methoxybenzamide] | < 50 | 10 to 50 |
| CNC(=O)COc1cc2cc(Nc3nc(N4CCN(C(C)(C)C5CCN(c6c(OC)ccc(C(=O)NC7CCC(=O)NC7=O)c6F)CC5)CC4)ncc3Cl)ccc2n(C)c1=O (centres unmarked) [compound 481, 3-[4-(2-{4-[5-chloro-4-({1-methyl-3-[(methylcarbamoyl)methoxy]-2-oxo-1,2-dihydroquinolin-6-yl}amino)pyrimidin-2-yl]piperazin-1-yl}propan-2-yl)piperidin-1-yl]-N-(2,6-dioxopiperidin-3-yl)-2-fluoro-4-methoxybenzamide] | ≥ 70 | < 10 |
| CNC(=O)COc1cc2cc(Nc3nc(N4CCC5(CC4)CC(CN4CCN(c6ccc7c(c6)C(=O)N(C6CCC(=O)NC6=O)C7=O)CC4)C5)ncc3Cl)ccc2n(C(C)C)c1=O (centres unmarked) [compound 483, 2-{[6-({5-chloro-2-[2-({4-[2-(2,6-dioxopiperidin-3-yl)-1,3-dioxo-2,3-dihydro-1H-isoindol-5-yl]piperazin-1-yl}methyl)-7-azaspiro[3.5]nonan-7-yl]pyrimidin-4-yl}amino)-2-oxo-1-(propan-2-yl)-1,2-dihydroquinolin-3-yl]oxy}-N-methylacetamide] | 50 to 70 | < 10 |
| CNC(=O)COc1cc2cc(Nc3nc(N4CCC5(CC4)CC(CN4CCN(c6cccc7c6C(=O)N(C6CCC(=O)NC6=O)C7=O)CC4)C5)ncc3Cl)ccc2n(C(C)C)c1=O (centres unmarked) [compound 484, 2-{[6-({5-chloro-2-[2-({4-[2-(2,6-dioxopiperidin-3-yl)-1,3-dioxo-2,3-dihydro-1H-isoindol-4-yl]piperazin-1-yl}methyl)-7-azaspiro[3.5]nonan-7-yl]pyrimidin-4-yl}amino)-2-oxo-1-(propan-2-yl)-1,2-dihydroquinolin-3-yl]oxy}-N-methylacetamide] | 50 to 70 | < 10 |
| CNC(=O)COc1cc2cc(Nc3nc(N4CCN(CC5CCN(c6cccc7c6C(=O)N(C6CCC(=O)NC6=O)C7=O)CC5)CC4)ncc3Cl)ccc2n(CC2COC2)c1=O (centres unmarked) [compound 485, 2-{[6-({5-chloro-2-[4-({1-[2-(2,6-dioxopiperidin-3-yl)-1,3-dioxo-2,3-dihydro-1H-isoindol-4-yl]piperidin-4-yl}methyl)piperazin-1-yl]pyrimidin-4-yl}amino)-1-[(oxetan-3-yl)methyl]-2-oxo-1,2-dihydroquinolin-3-yl]oxy}-N-methylacetamide] | 50 to 70 | < 10 |
| CNC(=O)COc1cc2cc(Nc3nc(N4CCC(C5(N6CCC(c7ccc8c(c7)C(=O)N(C7CCC(=O)NC7=O)C8=O)CC6)CC5)CC4)ncc3Cl)ccc2n(C(C)C)c1=O (centres unmarked) [compound 488, 2-{[6-({5-chloro-2-[4-(1-{4-[2-(2,6-dioxopiperidin-3-yl)-1,3-dioxo-2,3-dihydro-1H-isoindol-5-yl]piperidin-1-yl}cyclopropyl)piperidin-1-yl]pyrimidin-4-yl}amino)-2-oxo-1-(propan-2-yl)-1,2-dihydroquinolin-3-yl]oxy}-N-methylacetamide] | 50 to 70 | < 10 |
| CNC(=O)COc1cc2cc(Nc3nc(N4CCC(CN5CCC6(CC5)CCN(c5ccc7c(c5)C(=O)N(C5CCC(=O)NC5=O)C7=O)C6)CC4)ncc3Cl)ccc2n(C(C)C)c1=O (centres unmarked) [compound 489, 2-{[6-({5-chloro-2-[4-({2-[2-(2,6-dioxopiperidin-3-yl)-1,3-dioxo-2,3-dihydro-1H-isoindol-5-yl]-2,8-diazaspiro[4.5]decan-8-yl}methyl)piperidin-1-yl]pyrimidin-4-yl}amino)-2-oxo-1-(propan-2-yl)-1,2-dihydroquinolin-3-yl]oxy}-N-methylacetamide] | 50 to 70 | < 10 |
| CNC(=O)COc1cc2cc(Nc3nc(N4CCC5(CCN(CC6CCN(c7ccc8c(c7)C(=O)N(C7CCC(=O)NC7=O)C8=O)CC6)CC5)C4)ncc3Cl)ccc2n(C(C)C)c1=O (centres unmarked) [compound 490, 2-{[6-({5-chloro-2-[8-({1-[2-(2,6-dioxopiperidin-3-yl)-1,3-dioxo-2,3-dihydro-1H-isoindol-5-yl]piperidin-4-yl}methyl)-2,8-diazaspiro[4.5]decan-2-yl]pyrimidin-4-yl}amino)-2-oxo-1-(propan-2-yl)-1,2-dihydroquinolin-3-yl]oxy}-N-methylacetamide] | 50 to 70 | < 10 |
| CNC(=O)COc1cc2cc(Nc3nc(N4CCC[C@H](COc5cccc6c5C(=O)N(C5CCC(=O)NC5=O)C6=O)C4)ncc3Cl)ccc2n(CC2COC2)c1=O (stereo partly drawn) [compound 491, 2-{[6-({5-chloro-2-[(3S)-3-({[2-(2,6-dioxopiperidin-3-yl)-1,3-dioxo-2,3-dihydro-1H-isoindol-4-yl]oxy}methyl)piperidin-1-yl]pyrimidin-4-yl}amino)-1-[(oxetan-3-yl)methyl]-2-oxo-1,2-dihydroquinolin-3-yl]oxy}-N-methylacetamide] | ≥ 70 | ≥ 100 |
| Cn1c(=O)n(CCC(C)(C)O)c2cc(Nc3nc(N4CCC(CN5CCN(c6cccc7c6C(=O)N(C6CCC(=O)NC6=O)C7=O)CC5)CC4)ncc3Cl)ccc21 (centres unmarked) [compound 492, 4-(4-{[1-(5-chloro-4-{[3-(3-hydroxy-3-methylbutyl)-1-methyl-2-oxo-2,3-dihydro-1H-1,3-benzodiazol-5-yl]amino}pyrimidin-2-yl)piperidin-4-yl]methyl}piperazin-1-yl)-2-(2,6-dioxopiperidin-3-yl)-2,3-dihydro-1H-isoindole-1,3-dione] | 50 to 70 | 50 to 100 |
| Cn1c(=O)n(CCC(C)(C)O)c2cc(Nc3nc(N4CCC(OC5CC6(CCN(c7cccc8c7C(=O)N(C7CCC(=O)NC7=O)C8=O)CC6)C5)CC4)ncc3Cl)ccc21 (centres unmarked) [compound 493, 4-(2-{[1-(5-chloro-4-{[3-(3-hydroxy-3-methylbutyl)-1-methyl-2-oxo-2,3-dihydro-1H-1,3-benzodiazol-5-yl]amino}pyrimidin-2-yl)piperidin-4-yl]oxy}-7-azaspiro[3.5]nonan-7-yl)-2-(2,6-dioxopiperidin-3-yl)-2,3-dihydro-1H-isoindole-1,3-dione] | < 50 | 10 to 50 |
| CNC(=O)COc1cc2cc(Nc3nc(N4CCC(CN5CCC6(CCN(c7ccc8c(c7)C(=O)N(C7CCC(=O)NC7=O)C8=O)CC6)C5)CC4)ncc3Cl)ccc2n(C(C)C)c1=O (centres unmarked) [compound 494, 2-{[6-({5-chloro-2-[4-({8-[2-(2,6-dioxopiperidin-3-yl)-1,3-dioxo-2,3-dihydro-1H-isoindol-5-yl]-2,8-diazaspiro[4.5]decan-2-yl}methyl)piperidin-1-yl]pyrimidin-4-yl}amino)-2-oxo-1-(propan-2-yl)-1,2-dihydroquinolin-3-yl]oxy}-N-methylacetamide] | 50 to 70 | < 10 |
| CNC(=O)COc1cc2cc(Nc3nc(N4CCC(CN5CCC6(CC5)CCN(c5ccc7c(c5)C(=O)N(C5CCC(=O)NC5=O)C7=O)CC6)CC4)ncc3Cl)ccc2n(C(C)C)c1=O (centres unmarked) [compound 495, 2-{[6-({5-chloro-2-[4-({9-[2-(2,6-dioxopiperidin-3-yl)-1,3-dioxo-2,3-dihydro-1H-isoindol-5-yl]-3,9-diazaspiro[5.5]undecan-3-yl}methyl)piperidin-1-yl]pyrimidin-4-yl}amino)-2-oxo-1-(propan-2-yl)-1,2-dihydroquinolin-3-yl]oxy}-N-methylacetamide] | 50 to 70 | < 10 |
| CNC(=O)COc1cc2cc(Nc3nc(N4CCC5(CCN(CC6CCN(c7ccc8c(c7)C(=O)N(C7CCC(=O)NC7=O)C8=O)CC6)CC5)CC4)ncc3Cl)ccc2n(C(C)C)c1=O (centres unmarked) [compound 496, 2-{[6-({5-chloro-2-[9-({1-[2-(2,6-dioxopiperidin-3-yl)-1,3-dioxo-2,3-dihydro-1H-isoindol-5-yl]piperidin-4-yl}methyl)-3,9-diazaspiro[5.5]undecan-3-yl]pyrimidin-4-yl}amino)-2-oxo-1-(propan-2-yl)-1,2-dihydroquinolin-3-yl]oxy}-N-methylacetamide] | 50 to 70 | < 10 |
| CNC(=O)COc1cc2cc(Nc3nc(N4CCC(CN5CCC6(CC5)CCN(c5ccc(N7CCC(=O)NC7=O)cc5)C6)CC4)ncc3Cl)ccc2n(C(C)C)c1=O [compound 497, 2-{[6-({5-chloro-2-[4-({2-[4-(2,4-dioxo-1,3-diazinan-1-yl)phenyl]-2,8-diazaspiro[4.5]decan-8-yl}methyl)piperidin-1-yl]pyrimidin-4-yl}amino)-2-oxo-1-(propan-2-yl)-1,2-dihydroquinolin-3-yl]oxy}-N-methylacetamide] | < 50 | < 10 |
